Data from patent publication EP0609289B1, “IMIDAZOLE DERIVATIVES AND PHARMACEUTICAL COMPOSITIONS CONTAINING THE SAME” (THE UPJOHN COMPANY, priority 1991, dated 1993).

Target: Angiotensin II receptor
Test: In vitro angiotensin II mesenteric artery receptor binding assay (test 1)
Settings: rat mesenteric artery membrane fraction, 0.2 nM 125I-Ang II, 22°C, 90 minutes
Experimental: I) In vitro angiotensin II mesenteric artery receptor binding assay
According to the method (1) by Gunther et al., a membrane fraction was prepared from mesenteric artery of male rat, […] protein equivalent of it and 0.2 nM ^125I-Ang II as well as various concentrations of test compounds were incubated at 22°C for 90 minutes in an incubation buffer (50 mM Tris-HCl, 120 mM NaCl, 5 mM MgCl2. 0.25% bovine serum albumin, pH 7.2) (reaction volume; 200 µl). The incubated was cooled, and the reaction was stopped by addition of ice-cooled phosphate buffer (10 mM phosphate, 140 mM NaCI, pH 7.4, hereinafter referred to as PBS), and then the reaction solution was filtered through a glass fiber filter (Whatman CF/B), the filter was washed, dried, and then the radioactivity of captured ^125I-angiotensin II which bound to the receptor was measured by a γ-counter. Non-specific bound amount was obtained from the reaction in the presence of 1 µM of unlabeled angiotensin II. […] Res., 17:278-286, 1980].

Row | IC50 [nM] | SMILES
1 | 38 | CCCc1nc2c(=O)n3n(c(=O)c2n1Cc1ccc(-c2ccccc2-c2nnn[nH]2)cc1)C1CCC3(COCC(C)O)CC1 (stereo not shown) [Compound No. 227, 5,8-ethano-5-(2-hydroxypropyl)methoxynethyl-2-n-propyl-5,6,7,8-tetrahydro-1-[{2'-(1H-tetrazol-5-yl)biphenyl-4-yl}methyl]-1H-1,3,4a,8a-tetraza-cyclopentanaphthalene-4,9-dione]
2 | 8.7 | CCCc1nc2c(=O)n3n(c(=O)c2n1Cc1ccc(-c2ccccc2-c2nnn[nH]2)cc1)C1(COCC(C)O)CCC3CC1 (stereo not shown) [Compound No. 229, 5,8-ethano-8-(2-hydroxypropyl)methoxymethyl-2-n-propyl-5,6,7,8-tetrahydro-1-[{2'-(1H-tetrazol-5-yl)biphenyl-4-yl}methyl]-1H-1,3,4a,8a-tetraza-cyclopentanaphthalene-4,9-dione]
3 | > 100 | CCCc1nc2c(=O)n3n(c(=O)c2n1Cc1ccc(-c2ccccc2-c2nn[nH]n2)cc1)C1(C(=O)N(CC)CC)CCC3CC1 [Compound No. 233, 4,9-dioxo-5,8-ethano-2-n-propyl-5,6,7,8-tetrahydro-1-[{2'-(1H-tetrazol-5-yl)biphenyl-4-yl}methyl]-1H-1,3,4a,8a-tetraza-cyclopentanaphthalene-8-carboxy-N,N-diethylamide]
4 | > 100 | CCCCc1nc2c(=O)n3n(c(=O)c2n1Cc1ccc(-c2ccccc2-c2nn[nH]n2)cc1)C1(C(=O)NC(C)(C)C)CCC3CC1 [Compound No. 238, 2-n-butyl-4,9-dioxo-5,8-ethano-5,6,7,8-tetrahydro-1-[{2'-(1H-tetrazol-5-yl)biphenyl-4-yl}methyl]-1H-1,3,4a,8a-tetraza-cyclopentanaphthalene-8-carboxy-N-t-butylamide]
5 | > 100 | CCCc1nc2c(=O)n3n(c(=O)c2n1Cc1ccc(-c2ccccc2-c2nn[nH]n2)cc1)C1CCC3(C(=O)N(CCO)CCO)CC1 [Compound No. 239, 4,9-dioxo-5,8-ethano-2-n-propyl-5,6,7,8-tetrahydro-1-[{2'-(1H-tetrazol-5-yl)biphenyl-4-yl}methyl]-1H-1,3,4a,8a-tetraza-cyclopentanaphthalene-5-carboxy-N,N-bis(2-hydroxyethyl)amide]
6 | 25 | CCCc1nc2c(=O)n3n(c(=O)c2n1Cc1ccc(-c2ccccc2-c2nn[nH]n2)cc1)C1(C(=O)N(CCO)CCO)CCC3CC1 [Compound No. 241, 4,9-dioxo-5,8-ethano-2-n-propyl-5,6,7,8-tetrahydro-1-[{2'-(1H-tetrazol-5-yl)biphenyl-4-yl}methyl]-1H-1,3,4a,8a-tetraza-cyclopentanaphthalene-8-carboxy-N,N-bis(2-hydroxyethyl)amide]
7 | 4.6 | CCCc1nc2c(=O)n3n(c(=O)c2[nH]1)C(C)CCC3C (stereo not shown) [Compound No. 280, 5,8-dimethyl-2-n-propyl-5 6,7,8-tetrahydro-1H-1,3,4a,8a-tetraza-cyclopentanaphthalene-4,9-dione]
8 | > 100 | CCCc1nc2c(=O)n3n(c(=O)c2[nH]1)C1CCC3(C(C)(C)O)CC1 [Compound No. 323, 5,8-ethano-5-(1-hydroxy-1-methylethyl)-2-n-propyl-5,6,7,8-tetrahydro-1H-1,3,4a,8a-tetraza-cyclopentanaphthalene-4,9-dione]
9 | 65 | CCCc1nc2c(=O)n3n(c(=O)c2n1Cc1ccc(-c2ccccc2-c2nn[nH]n2)cc1)C(C)CCC3c1nc(C)no1 (stereo not shown) [Compound No. 329, 8-methyl-5-(3-methyloxadiazol-5-yl)-2-n-propyl-5,6,7,8-tetrahydro-1-[{2'-(1H-tetrazol-5-yl)biphenyl-4-yl}methyl]-1H-1,3,4a,8a-tetraza-cyclopentanaphthalene-4,9-dione]
10 | 3.9 | CCCc1nc2c(=O)n3n(c(=O)c2n1Cc1ccc(-c2ccccc2-c2nn[nH]n2)cc1)C(c1nc(C)no1)CCC3C (stereo not shown) [Compound No. 331, 5-methyl-8-(3-methyloxadiazol-5-yl)-2-n-propyl-5,6,7,8-tetrahydro-1-[{2'-(1H-tetrazol-5-yl)biphenyl-4-yl}methyl]-1H-1,3,4a,8a-tetraza-cyclopentanaphthalene-4,9-dione]
11 | 35 | CCCc1nc2c(=O)n3n(c(=O)c2n1Cc1ccc(-c2ccccc2-c2nn[nH]n2)cc1)CC(CC)=C(CC)C3 [Compound No. 359, 6,7-diethyl-5,8-dihydro-2-n-propyl-5,6,7,8-tetrahydro-1-[{2'-(1H-tetrazol-5-yl)biphenyl-4-yl}methyl]-1H-1,3,4a,8a-tetraza-cyclopentanaphthalene-4,9-dione]
12 | 4.6 | CCCc1nc2c(n1Cc1ccc(-c3ccccc3-c3nn[nH]n3)cc1)C(=O)N1CC(C)C(C)CN1C2 (stereo not shown) [Compound No. 378, 6,7-dimethyl-2-n-propyl-5,6,7,8-tetrahydro-1-[{2'-(1H-tetrazol-5-yl)biphenyl-4-yl}methyl]-1H,4H-1,3,4a,8a-tetraza-cyclopentanaphthalene-9-one]
13 | 26 | CCCc1nc2c(n1Cc1ccc(-c3ccccc3-c3nn[nH]n3)cc1)C(=O)N1CC(C)=C(C)CN1C2 [Compound No. 382, 5,8-dihydro-6,7-dimethyl-2-n-propyl-1-[{2'-(1H-tetrazol-5-yl)biphenyl-4-yl}methyl]-1H,4H-1,3,4a,8a-tetraza-cyclopentanaphthalene-9-one]
14 | 35 | CCCc1nc2c(n1Cc1ccc(-c3ccccc3-c3nn[nH]n3)cc1)C(=O)N1CC(CC)=C(CC)CN1C2 [Compound No. 390, 6,7-diethyl-5,8-dihydro-2-n-propyl-1-[{2'-(1H-tetrazol-5-yl)biphenyl-4-yl}methyl]-1H,4H-1,3,4a,8a-tetraza-cyclopentanaphthalene-9-one]
15 | 1.3 | CCCCc1nc2c(n1Cc1ccc(-c3ccccc3-c3nn[nH]n3)cc1)C(=O)N1C3CCC(C)(CC3)N1C2 [Compound No. 443, 2-n-butyl-5,8-ethano-5-methyl-5,6,7,8-tetrahydro-1-[{2'-(1H-tetrazol-5-yl)biphenyl-4-yl}methyl]-1H,4H-1,3,4a,8a-tetraza-cyclopentanaphthalene-9-one]
16 | 2.5 | CCCCc1nc2c(n1Cc1ccc(-c3ccccc3-c3nn[nH]n3)cc1)C(=O)N1N(C2)C2CCC1(C)CC2 [Compound No. 447, 2-n-butyl-5,8-ethano-8-methyl-5,6,7,8-tetrahydro-1-[{2'-(1H-tetrazol-5-yl)biphenyl-4-yl}methyl]-1H,4H-1,3,4a,8a-tetraza-cyclopentanaphthalene-9-one]
17 | > 100 | CCc1nc2c(n1Cc1ccc(-c3ccccc3-c3nnn[nH]3)cc1)C(=O)N1N(C2)C2(CC)CCC1(CC)CC2 [Compound No. 453, 5,8-diethyl-5,8-ethano-2-ethyl-5,6,7,8-tetrahydro-1-[{2'-(1H-tetrazol-5-yl)biphenyl-4-yl}methyl]-1H,4H-1,3,4a,8a-tetraza-cyclopentanaphthalene-9-one]
18 | 20 | CCCc1nc2c(n1Cc1ccc(-c3ccccc3-c3nnn[nH]3)cc1)C(=O)N1C(c3ccccc3)CCCN1C2 (stereo not shown) [Compound No. 470, 8-phenyl-2-n-propyl-5,6,7,8-tetrahydro-1-[{2'-(1H-tetrazol-5-yl)biphenyl-4-yl}methyl]-1H,4H-1,3,4a,8a-tetraza-cyclopentanaphthalene-9-one]
19 | > 100 | CCCc1nc2c(n1Cc1ccc(-c3ccccc3-c3nnn[nH]3)cc1)CN1C3CCC(CC3)N1C2 [Compound No. 523, 5,8-ethano-4,5,6,7,8,9-hexahydro-2-n-propyl-1-[{2'-(1H-tetrazol-5-yl)biphenyl-4-yl}methyl]-1H-1,3,4a,8a-tetraza-cyclopentanaphthalene]
